Experimental data as given in patent US20190185507A1 (priority 2016, published 2019).
pIC50: −log10 of the molar value.

Assays:
[1] = Bi-directional Caco-2 cell permeability assay; settings: human, Caco-2, pH 7.4
Experimental: (§1) The bi-directional Caco-2 cell permeability assay was performed as described as follows: Caco-2 cells (ECACC) were seeded onto 24-well Transwell plates at 2×10^5 cells per well and used in confluent monolayers after a 21 day culture at 37° C. under 5% CO2. Test and control compounds (propranolol, vinblastine), prepared in DMSO, were added (10 μM, 0.1% DMSO final, n=2) to donor compartments of the Transwell plate assembly in assay buffer (Hanks balanced salt solution supplemented with 25 mM HEPES, adjusted to pH 7.4) for both apical to basolateral (A>B) and basolateral to apical (B>A) measurements. Incubations were performed at 37° C., with samples removed from both donor and acceptor chambers at T=0 and 1 hour and compound analysed by mass spectrometry (LC-MS/MS) including an analytical internal standard.
(§2) Apparent permeability (Papp) values were determined from the relationship: Papp=[CompoundAcceptor T=end]×VAcceptor/([CompoundDonor T=0]×VDonor)/incubation time×VDonor/Area×60×10-6 cm/s
(§3) Where V is the volume of each Transwell compartment (apical 125 μL, basolateral 600 μL), and concentrations are the relative MS responses for compound (normalized to internal standard) in the donor chamber before incubation and acceptor chamber at the end of the incubation.
(§4) Area=area of cells exposed for drug transfer (0.33 cm2).
(§5) Efflux ratios (Papp B>A/Papp A>B) were calculated for each compound from the mean Papp values in each direction.
(§6) Lucifer Yellow (LY) was added to the apical buffer in all wells to assess viability of the cell layer.
(§7) Compound recovery from the wells was determined from MS responses (normalized to internal standard) in donor and acceptor chambers at the end of incubation compared to response in the donor chamber pre-incubation.

Caco-2 cells = assay: Bi-directional Caco-2 cell permeability assay; settings: for permeability classification in the A>B direction: Caco-2; for efflux transporter substrate finding: efflux ratio larger than 2
Experimental: as §1, §2, §3, §4, §5, §6, §7

[2] = tested on: HCV (Jc-1 Wild-type virus); assay: Efficacy testing of Sofosbuvir and n-Propyl-Sofosbuvir in HCV-infected Huh7.5 cells, quantitative PCR of HCV RNA in supernatant; type: cell-based, Hepatitis C virus; settings: for virus reduction / Ct-value (threshold cycle) of HCV-RNA: single application 48 h post infection; for virus reduction: two days treatment, inferred from Ct 28 vs 25; for Ct-value (threshold cycle) of HCV-RNA: μM range down to lowest dose, RNA extracted two days later, SYBR Green kit, untreated control Ct around 25 (FIG. 1); for antiviral profile (reduction of viral titer): single application, 72 h, concentrations down to 9 nM, Altona HCV quantification kit (FIG. 4); for amount of viral RNA (viral load) / reduction of viral RNA: two-time application, highest concentrations; for amount of viral RNA (viral load): CE-labeled PCR HCV quantification kit, controls around 10^7 IU/ml (FIG. 7); for reduction of viral RNA: versus controls
Experimental: HCV histochemistry and determination of virus titers. To determine virus titers, the protocol described by Linden bach et al. (2005) is slightly modified. 1×10^4 Huh-7.5 cells or 0.7×10^4 Lunet cells were seeded per 96-well 24 h prior to infection. Six wells are infected simultaneously with the same dilution of filtered cell culture supernatants of HCV transfected or infected cells. Usually, the first dilution is a 1:10 dilution followed by 1:6 dilutions. 72 h after infection, the cells are washed once with PBS and then fixed in ice-cold methanol for 20 min at −20° C. Afterwards, the cells are washed with PBS and then permeabilized with 0.5% Triton X-100 in PBS for 5 min at RT. The first antibody detecting the HCV NSSA protein (9E10) is diluted 1:2000 in PBS and was incubated on the cells for 1 h. Then the cells are washed again three times with PBS and stained with the secondary antibody (goat a-mouse coupled to HRP, Sigma) 1:200 in PBS for 45 min at RT. To detect the HCV positive cells, the wells are first washed again three times with PBS and then the HRP activity is detected by the addition of 30 μl Carbazole substrate/96-well for 15 min at RT. Afterwards, the substrate is replaced with water and the wells were analyzed by light microscopy for positive cells. The 50% tissue culture infectious dose (TCID50) is calculated based on the methods described by Spearman and Karber. By this, the concentrations of a virus isolation needed to infect 50% of a given number of wells is determined (Spearman, 1908). qPCR of viral supernatant. Total RNA was extracted by the Altostar system according to the protocol of the manufacturer. A Power SYBR Green RNA-to-Ct 1-step kit (Applied Biosystems) is used to quantify the amount of HCV RNA. Primers specific for the 5′ UTR are 5′-TGCGGAACCGGTGAGTACA-3′ (forward) and […]. The PCR program conditions are as follows: 30 min at 48° C. for reverse transcription, 10 min at 95° C. for enzyme activation, and 40 cycles of amplification with 15 s at 95° C. for denaturation and 1 min at 60° C. for annealing and extension. Standard curve reactions are run in parallel by using serially diluted Jc1/Gluc2A plasmid ranging from 2.0×10^7 to 2.0×10^0 copies. To confirm obtained for experiment 3 (FIGS. 4 and 7), PCR was performed using the Atlona HCV-quantification kit.
Efficacy Testing of Sofosbuvir and n-Propyl-Sofosbuvir (compound I″a). Huh7.5 cells (1×10^4 per well) were seeded in a 96-well plate. The following day cells were infected with 8500 TCID50/well of HCV (Jc-1 Wild-type virus) for infection. After 48 h cells were treated with Sofosbuvir, n-Propyl-Sofosbuvir and as a negative control with the solvent used for Sofosbuvir, n-Propyl-Sofosbuvir (DMSO/EtOH) at concentrations given in the Figures. Two days or three later, supernatants were harvested and RNA was extracted by the Altostar system according to the protocol of the manufacturer. Quantitative PCR was performed using the Atlona HCV-quantification kit as recommended by the manufacturer.
In one set of experiments, Sofosbuvir and n-Propyl-Sofosbuvir were applied 48 h post infection and again 24 h later as indicated by FIG. 5.
All experiments shown represent the mean of at least two independent sets of data performed in duplicates.

[3] = tested on: HCV-Jc-1 tagged to a yellow fluorescent protein; settings: after 48 h of infection; Liu et al., Antimicrob. Agents Chemother. 2015; cited from earlier work

Which Papp A→B at 1 h, 10 μM [1] does the source give for CC(C)OC(=O)[C@H](C)N[P@](=O)(OC[C@H]1O[C@@H](n2ccc(=O)[nH]c2=O)[C@](C)(F)[C@@H]1O)Oc1ccccc1 [Sofosbuvir, (S)-isopropyl 2-(((S)-(((2R,3R,4R,5R)-5-(2,4-dioxo-3,4-dihydropyrimidin-1(2H)-yl)-4-fluoro-3-hydroxy-4-methyltetrahydrofuran-2-yl)methoxy)(phenoxy)phosphoryl)-amino)propanoate] here?
The Papp A→B at 1 h, 10 μM was 4 ×10⁻⁶ cm/s.

What about the efflux ratio at 1 h, 10 μM [1] of the same compound?
Its efflux ratio at 1 h, 10 μM is 4.6.

What about the “permeability classification in the A>B direction” value (Caco-2 cells) of the same compound?
The value was “low permeable”.

And the “efflux transporter substrate finding” value (Caco-2 cells)?
Its value is “substrates of efflux transporters”.

What about the virus reduction [2] of the same compound?
Its virus reduction is “about 1 log”.

What about the “Ct-value (threshold cycle) of HCV-RNA” value [2] of the same compound?
Its value is “around 28”.

What about the “antiviral profile (reduction of viral titer)” value [2] of the same compound?
The value was “comparable antiviral profile”.

And the “amount of viral RNA (viral load)” value [2]?
The value was 6.5×10^5 IU/ml.

What about the “reduction of viral RNA” value [2] of the same compound?
Its value is “about 95%”.

And the pIC50 [3]?
Its pIC50 is < 5.00.

Which results are given for CCCOC(=O)[C@H](C)N[P@](=O)(OC[C@H]1O[C@@H](n2ccc(=O)[nH]c2=O)[C@](C)(F)[C@@H]1O)Oc1ccccc1 [n-Propyl-Sofosbuvir, (S)-n-propyl 2-(((S)-(((2R,3R,4R,5R)-5-(2,4-dioxo-3,4-dihydropyrimidin-1(2H)-yl)-4-fluoro-3-hydroxy-4-methyltetrahydrofuran-2-yl)methoxy)(phenoxy)phosphoryl)-amino)propanoate]?
Papp A→B at 1 h, 10 μM [1]: 2 ×10⁻⁶ cm/s; efflux ratio at 1 h, 10 μM [1]: 4.4; permeability classification in the A>B direction (Caco-2 cells): low permeable; efflux transporter substrate finding (Caco-2 cells): substrates of efflux transporters; virus reduction [2]: about 1 log; Ct-value (threshold cycle) of HCV-RNA [2]: around 28; antiviral profile (reduction of viral titer) [2]: comparable antiviral profile; amount of viral RNA (viral load) [2]: 6.5×10^5 IU/ml; reduction of viral RNA [2]: about 95%

Which Papp A→B at 1 h, 10 μM [1] does the source give for CC[C@]1(O)C[C@@H]2CN(CCc3c([nH]c4ccccc34)[C@@](C(=O)OC)(c3cc4c(cc3OC)N(C)[C@H]3[C@@](O)(C(=O)OC)[C@H](OC(C)=O)[C@]5(CC)C=CCN6CC[C@]43[C@@H]65)C2)C1 [vinblastine] here?
Its Papp A→B at 1 h, 10 μM is 5 ×10⁻⁶ cm/s.
